From patent US12234504B1 (priority 2023, dated 2025)
Positions of bridges follow the written chain, without caps; N, C: chain ends. Non-standard residues stand in square brackets, D forms with d. Residues, ends and D or L forms follow the SMILES beside them. *: point of attachment. Ileψ(thiazoline)Cys = CC[C@H](C)[C@H](N)C1=N[C@H](C(=O)*)CS1; dOrn = NCCC[C@@H](N)C(=O)O

Columns and labels:
E. coli DNA gyrase [1] = target: T1, E. coli DNA gyrase (Escherichia coli, UniProt P0AES4+P0AES6); type: biochemical; settings: for fluorescence intensity of the DNA samples (in words): validation with 10 antibiotics, FIG. 5A; for effect on SYBR Green fluorescence intensity (in words): 20 μM compound, FIG. 7A
T1 construct: made in house
T1 sequence (P0AES4 whole entry, one chain of several): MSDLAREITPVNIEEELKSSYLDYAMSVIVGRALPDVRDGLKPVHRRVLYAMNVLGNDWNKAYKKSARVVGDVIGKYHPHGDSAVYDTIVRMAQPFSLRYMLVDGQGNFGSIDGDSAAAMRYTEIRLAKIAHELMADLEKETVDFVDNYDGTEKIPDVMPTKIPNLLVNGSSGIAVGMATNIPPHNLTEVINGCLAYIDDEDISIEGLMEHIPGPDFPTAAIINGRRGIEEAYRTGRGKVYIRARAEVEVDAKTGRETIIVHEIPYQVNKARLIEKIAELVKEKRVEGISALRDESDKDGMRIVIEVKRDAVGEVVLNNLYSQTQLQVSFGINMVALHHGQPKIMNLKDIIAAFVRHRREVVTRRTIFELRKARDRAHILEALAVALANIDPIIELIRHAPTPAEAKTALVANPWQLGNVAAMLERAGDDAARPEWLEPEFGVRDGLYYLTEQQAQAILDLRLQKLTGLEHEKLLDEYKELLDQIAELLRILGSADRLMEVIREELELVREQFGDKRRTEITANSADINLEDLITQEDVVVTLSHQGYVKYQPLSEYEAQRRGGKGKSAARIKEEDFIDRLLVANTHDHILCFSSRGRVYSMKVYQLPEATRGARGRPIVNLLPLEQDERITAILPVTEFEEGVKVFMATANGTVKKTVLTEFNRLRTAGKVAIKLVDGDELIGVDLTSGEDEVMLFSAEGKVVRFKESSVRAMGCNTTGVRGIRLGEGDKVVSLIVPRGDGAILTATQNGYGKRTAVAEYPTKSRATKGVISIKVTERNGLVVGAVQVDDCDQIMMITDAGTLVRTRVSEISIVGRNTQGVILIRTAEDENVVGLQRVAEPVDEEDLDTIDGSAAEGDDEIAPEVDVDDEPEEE

E. coli DNA gyrase [2] = target: T1, E. coli DNA gyrase; type: biochemical; settings: 50 μM compound; for Fluorescent Intensity #1 / Fluorescent Intensity #2 / Mean Fluorescent Intensity: 50-compound library screen; for Fluorescent Intensity #1: duplicate 1; for Fluorescent Intensity #1 / Fluorescent Intensity #2: low fluorescence = gyrase poison; for Fluorescent Intensity #2: duplicate 2; for Mean Fluorescent Intensity: mean of duplicates; for fluorescence intensity compared with negative controls (in words): HTS screen; for hit in HTS pilot screen (inhibition ≥50% cutoff): duplicate
Method: FIGS. 6A-6B. High throughput screening (HTS) pilot screen of the 50-compound library for E. coli DNA gyrase poisoning inhibitors in duplicate. A final compound concentration of 50 μM was used. […] (A) Fluorescence raw data.
A Fluorescence-Based, T5 Exonuclease-Amplified DNA Cleavage Assay to Identify Poisoning Inhibitors for E. coli DNA Gyrase.
For negative control experiments, 1% DMSO was used. […] 0.5 mg/mL of proteinase K was then added to the reaction mixtures to digest DNA gyrase at 50° C. for 30 min. After the DNA samples were diluted 100 times using 1×NEB buffer 4 (20 mM Tris-Acetate, pH 7.9, 50 mM KAc, 10 mM Mg(AC)2, and 1 mM DTT), 30 μL of each DNA sample was transfer to a well of a 384-well plate. 200 nM of T5 exonuclease was used to digest DNA fragment for 2 hours at 37° C. 1×SYBR™ Green was added to all DNA samples. Fluorescence intensity was measured using a Biotek microplate reader with excitation wavelength of 497 nm and emission wavelength of 525 nm.
Z′ was calculated by the following equation: […]

E. coli DNA gyrase [3] = target: T1, E. coli DNA gyrase; assay: Agarose gel-based DNA gyrase-mediated DNA cleavage assay; type: biochemical; settings: FIG. 7B
Method: FIGS. 2A-2F. Agarose gel-based DNA gyrase cleavage assays were performed as described in Materials and Methods. […] Lane 7 is Lambda DNA HindIII digest as the molecular standard. […] 500 ng of a DNA HindIII digest was digested using 50 nM of T5E in 20 μL of 1× gyrase-mediated DNA cleavage buffer (20 mM Tris-HCl pH 8, 50 mM KAc, 10 mM MgCl2, 2 mM DTT, 1 mM ATP, 0.1 mg/mL BSA) for 30 min in the presence of different concentrations of SDS. […] (E) Effects of sarkosyl on T5 exonuclease (T5E). 500 ng of a DNA HindIII digest was digested using 50 nM of T5E in 20 μL of 1× gyrase-mediated DNA cleavage buffer for 30 min in the presence of different concentrations of sarkosyl. […] Lanes 1-7 contained 0, 5, 10, 20, 30, 40, and 50 nM of T5 exonuclease, respectively.
DNA Gyrase and Human DNA Topoisomerase IIα Mediated DNA Cleavage Assay.
250 ng of relaxed plasmid pBR322 and 20 nM of E. coli DNA gyrase or human DNA topoisomerase IIα were mixed and incubated in 1×gyrase-mediated DNA cleavage buffer (20 mM Tris-HCl pH 8, 50 mM KAc, 10 mM MgCl2, 2 mM DTT, 1 mM ATP, 0.1 mg/mL BSA) at 37° C. for 15 minutes in the presence of an inhibitor or compound. After the incubation, 0.2% SDS and 0.1 mg/ml proteinase K were added to the reaction mixtures to trap the topoisomerase-inhibitor-DNA complex and digest the topoisomerase, respectively, by incubating for an additional 30 min at 37° C. DNA samples were analyzed in 1% agarose gel containing […] ethidium bromide in 1′TAE buffer and photographed under UV light. […] Etoposide was used as a positive control for human DNA topoisomerase IIα-mediated DNA cleavage assays.

E. coli DNA gyrase [4] = target: T1, E. coli DNA gyrase; settings: read-out: IC50 against E. coli DNA gyrase; cited from earlier work
T5 exonuclease = target: T2, T5 exonuclease (Escherichia phage T5, UniProt P06229); assay: Detergent inhibition of T5 exonuclease on lambda DNA HindIII digest; type: biochemical; parameters: detergent concentration that inhibits T5 exonuclease: dose or concentration left out as unconfirmed
T2 construct: made in house
T2 sequence (P06229 whole entry): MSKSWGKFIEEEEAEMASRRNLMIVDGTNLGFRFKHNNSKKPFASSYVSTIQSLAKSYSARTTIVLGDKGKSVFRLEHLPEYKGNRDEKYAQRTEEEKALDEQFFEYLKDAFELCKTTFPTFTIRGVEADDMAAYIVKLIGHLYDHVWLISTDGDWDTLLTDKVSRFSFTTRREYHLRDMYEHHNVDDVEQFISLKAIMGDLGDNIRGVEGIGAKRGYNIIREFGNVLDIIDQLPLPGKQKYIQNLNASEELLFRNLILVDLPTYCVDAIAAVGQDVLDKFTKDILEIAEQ
Method: FIGS. 2A-2F. Agarose gel-based DNA gyrase cleavage assays were performed as described in Materials and Methods. […] Lane 7 is Lambda DNA HindIII digest as the molecular standard. […] (C) The appearance and disappearance of the gyrase-mediated linear band of plasmid pBR322 is dependent of the E. coli DNA gyrase concentration. High concentrations of E. coli DNA gyrase also cause disappearance of the supercoiled plasmid in the gyrase-mediated DNA cleavage assays. […] 500 ng of a DNA HindIII digest was digested using 50 nM of T5E in 20 μL of 1× gyrase-mediated DNA cleavage buffer (20 mM Tris-HCl pH 8, 50 mM KAc, 10 mM MgCl2, 2 mM DTT, 1 mM ATP, 0.1 mg/mL BSA) for 30 min in the presence of different concentrations of SDS. […] contained 0.000625, 0.00125, 0.0025, 0.005, 0.0125, and 0.025%, respectively. (E) Effects of sarkosyl on T5 exonuclease (T5E). 500 ng of a DNA HindIII digest was digested using 50 nM of T5E in 20 μL of 1× gyrase-mediated DNA cleavage buffer for 30 min in the presence of different concentrations of sarkosyl. Lanes 3 to 10 contained 0.005, 0.0125, 0.015, 0.02, 0.025, 0.05, 0.125, and 0.25%, respectively. (F) 50 nM of T5 exonuclease completely digested 500 ng of a DNA HindIII digest in 1× gyrase-mediated DNA cleavage buffer in the presence of 0.00125%. Lanes 1-7 contained 0, 5, 10, 20, 30, 40, and 50 nM of T5 exonuclease, respectively.
FIG. 3. […]

| Compound | Fluorescent Intensity #1 (E. coli DNA gyrase [2]) | Fluorescent Intensity #2 (E. coli DNA gyrase [2]) | Mean Fluorescent Intensity (E. coli DNA gyrase [2]) | hit in HTS pilot screen (inhibition ≥50% cutoff) (E. coli DNA gyrase [2]) | other results |
| --- | --- | --- | --- | --- | --- |
| CC1(C)S[C@@H]2[C@H](NC(=O)[C@H](N)c3ccccc3)C(=O)N2[C@H]1C(=O)O [ampicillin] | – | – | – | – | fluorescence intensity of the DNA samples (in words) (E. coli DNA gyrase [1]): high |
| O=C[C@H](O)[C@@H](O)[C@@H](O)[C@H](O)CO [D-galactose] | 4111 | 6277 | 5194 | – | – |
| Nc1ccc(S(N)(=O)=O)cc1 [sulfanilamide] | – | – | – | – | fluorescence intensity of the DNA samples (in words) (E. coli DNA gyrase [1]): high |
| CS[C@H]1SC[C@H]2C(=O)N(C)[C@@H](C(C)C)C(=O)OC[C@@H](NC(=O)c3cnc4ccccc4n3)C(=O)N[C@@H](C)C(=O)N(C)[C@@H]1C(=O)N(C)[C@@H](C(C)C)C(=O)OC[C@@H](NC(=O)c1cnc3ccccc3n1)C(=O)N[C@@H](C)C(=O)N2C [echinomycin] | – | – | – | – | fluorescence intensity compared with negative controls (in words) (E. coli DNA gyrase [2]): significant low fluorescence signals; gyrase-mediated DNA cleavage / gyrase poisoning (in words) (E. coli DNA gyrase [3]): do not possess gyrase poisoning properties; effect on SYBR Green fluorescence intensity (in words) (E. coli DNA gyrase [1]): did not reduce the fluorescence intensity |
| CCOc1ccc2nc3cc(N)ccc3c(N)c2c1 [etharcridine] | – | – | – | – | fluorescence intensity compared with negative controls (in words) (E. coli DNA gyrase [2]): significant low fluorescence signals; gyrase-mediated DNA cleavage / gyrase poisoning (in words) (E. coli DNA gyrase [3]): do not possess gyrase poisoning properties; effect on SYBR Green fluorescence intensity (in words) (E. coli DNA gyrase [1]): did not reduce the fluorescence intensity |
| Cc1ccc(C(=O)Nc2ccc(S(=O)(=O)O)c3cc(S(=O)(=O)O)cc(S(=O)(=O)O)c23)cc1NC(=O)c1cccc(NC(=O)Nc2cccc(C(=O)Nc3cc(C(=O)Nc4ccc(S(=O)(=O)O)c5cc(S(=O)(=O)O)cc(S(=O)(=O)O)c45)ccc3C)c2)c1 [suramin] | – | – | – | – | fluorescence intensity compared with negative controls (in words) (E. coli DNA gyrase [2]): significant low fluorescence signals; gyrase-mediated DNA cleavage / gyrase poisoning (in words) (E. coli DNA gyrase [3]): do not possess gyrase poisoning properties; effect on SYBR Green fluorescence intensity (in words) (E. coli DNA gyrase [1]): did not reduce the fluorescence intensity |
| COc1cccc2c1C(=O)c1c(O)c3c(c(O)c1C2=O)C[C@@](O)(C(=O)CO)C[C@@H]3O[C@H]1C[C@H](N)[C@H](O)[C@H](C)O1 [doxorubicin] | – | – | – | hits and false positive | gyrase-mediated DNA cleavage / gyrase poisoning (in words) (E. coli DNA gyrase [3]): did not cause gyrase-mediated DNA cleavage; effect on SYBR Green fluorescence intensity (in words) (E. coli DNA gyrase [1]): quenched |
| CN(C)[C@@H]1C(O)=C(C(N)=O)C(=O)[C@@]2(O)C(O)=C3C(=O)c4c(O)cccc4[C@@](C)(O)[C@H]3C[C@@H]12 [tertracycline] | 9594 | 9920 | 9757 | – | – |
| CC[C@H](C)[C@H](N)C1=N[C@H](C(=O)N[C@@H](CC(C)C)C(=O)N[C@H](CCC(=O)O)C(=O)N[C@H](C(=O)N[C@H]2CCCCNC(=O)[C@H](CC(N)=O)NC(=O)[C@@H](CC(=O)O)NC(=O)[C@H](Cc3cnc[nH]3)NC(=O)[C@@H](Cc3ccccc3)NC(=O)[C@H]([C@@H](C)CC)NC(=O)[C@@H](CCCN)NC2=O)[C@@H](C)CC)CS1 [bacitracin] ({Ileψ(thiazoline)Cys}-L[dE]IK[dOrn]I[dF]H[dD]N; lactam 4-C) | 7743 | 6533 | 7138 | – | – |
| CCn1cc(C(=O)O)c(=O)c2cc(F)c(N3CCNCC3)cc21 [norfloxacin] | – | – | – | hits | – |
| O=C[C@H](O)[C@@H](O)[C@@H](O)CO [L-arabinose] | 4824 | 7032 | 5928 | – | – |
| O=C[C@H](O)[C@@H](O)[C@H](O)[C@H](O)CO [D-glucose] | 4444 | 5984 | 5214 | – | – |
| CCn1cc(C(=O)O)c(=O)c2cc(F)c(N3CCNC(C)C3)c(F)c21 (stereo not shown) [lomefloxacin] | – | – | – | hits | – |
| CCN1CCN(c2cc3c(cc2F)c(=O)c(C(=O)O)cn3C2CC2)CC1 [enrofloxacin] | – | – | – | hits | – |
| CCn1cc(C(=O)O)c(=O)c2ccc(C)nc21 [nalidixic acid] | – | – | – | hits | fluorescence intensity compared with negative controls (in words) (E. coli DNA gyrase [2]): much lower; IC50 (E. coli DNA gyrase [4]): > 50 µM |
| polymyxin B sulfate salt | 6067 | 10508 | 8287.5 | – | fluorescence intensity of the DNA samples (in words) (E. coli DNA gyrase [1]): high |
| CCCCCCCCCCCCOS(=O)(=O)[O-].[Na+] [SDS, sodium dodecyl sulfate] | – | – | – | – | effect on T5 exonuclease activity (in words) (T5 exonuclease; 50 nM T5E, FIG. 2D/2E, SDS low concentrations, sarkosyl e.g. 0.015%): completely inhibited T5 exonuclease activity; detergent concentration that inhibits T5 exonuclease (T5 exonuclease; FIG. 3): ≥ 0.05% |
| CCN(CC)CCCC(C)Nc1ccnc2cc(Cl)ccc12 (stereo not shown) [chloroquine] | – | 8002 | – | – | – |
| CCn1cc(C(=O)O)c(=O)c2cc3c(cc21)OCO3 [oxolinic acid] | – | – | – | hits | – |
| CC[C@@]1(O)C(=O)OCc2c1cc1n(c2=O)Cc2cc3c(CN(C)C)c(O)ccc3nc2-1 [topotecan] | – | – | – | – | fluorescence intensity compared with negative controls (in words) (E. coli DNA gyrase [2]): significant low fluorescence signals; gyrase-mediated DNA cleavage / gyrase poisoning (in words) (E. coli DNA gyrase [3]): do not possess gyrase poisoning properties; effect on SYBR Green fluorescence intensity (in words) (E. coli DNA gyrase [1]): did not reduce the fluorescence intensity |
